Key:
αY447fs = assay: Membrane abundance of αY447fs; assay type: cell-based, human; conditions: 200 nM, relative to WT control (=1), own control 1.27 ± 0.10, p < 0.001 vs control
Description: Cell surface biotinylation was performed as previously described ([26]). In brief, A549 cells or transiently transfected HEK-293 cells were grown in 10 cm dishes in 37°C, 5% CO2 incubator in DMEM medium supplemented with 5% FBS. […] Medium was aspirated, and then cells were washed twice with 10 ml ice-cold phosphate-buffered saline (PBS), covered with 2.5 mg EZ-Link Sulfo-NHS-SS-Biotin (Thermo Scientific, Rockford, USA), dissolved in 10 ml ice-cold PBS, and incubated at 4°C with gentle agitation for 30 min. Fifty milliliters of quenching solution were added to cells; then cells were scraped in solution and transferred to fresh 50 ml tube. Cell suspension was centrifuged at 500 × g for 3 min. Supernatant was discarded, and 5 ml of Tris-buffered saline (TBS) was added to the cell pellet. The cell pellet was resuspended and centrifuged at 500 × g for 3 min. Supernatant was discarded and cell pellet was resuspended in lysis buffer containing protease inhibitor cocktail (10 µM pepstatin A, 10 µM phenylmethylsulfonyl fluoride, and 10 µM leupeptin) and transferred to fresh 1.5 ml centrifuge tube. Cell pellet was then homogenized on ice by ultrasonication using 1 s bursts and incubated on ice for at least 30 min. Intact cells and nuclei were pelleted by centrifugation at 10,000 × g for 2 min under cooling conditions. […] Exposed films were scanned and quantified using ImageJ (NIH, MD, USA). […]

α-hENaC = target: T1, α-hENaC (Homo sapiens, UniProt P37088); design: method as in PMID 24077967; conditions: α-hENaC alone, control current 55.3 ± 5.5 pA, mean ± S.E.; cited from earlier work
T1 construct: expressed in transfected cells; host or cells: HEK-293
T1 sequence (P37088 1-669): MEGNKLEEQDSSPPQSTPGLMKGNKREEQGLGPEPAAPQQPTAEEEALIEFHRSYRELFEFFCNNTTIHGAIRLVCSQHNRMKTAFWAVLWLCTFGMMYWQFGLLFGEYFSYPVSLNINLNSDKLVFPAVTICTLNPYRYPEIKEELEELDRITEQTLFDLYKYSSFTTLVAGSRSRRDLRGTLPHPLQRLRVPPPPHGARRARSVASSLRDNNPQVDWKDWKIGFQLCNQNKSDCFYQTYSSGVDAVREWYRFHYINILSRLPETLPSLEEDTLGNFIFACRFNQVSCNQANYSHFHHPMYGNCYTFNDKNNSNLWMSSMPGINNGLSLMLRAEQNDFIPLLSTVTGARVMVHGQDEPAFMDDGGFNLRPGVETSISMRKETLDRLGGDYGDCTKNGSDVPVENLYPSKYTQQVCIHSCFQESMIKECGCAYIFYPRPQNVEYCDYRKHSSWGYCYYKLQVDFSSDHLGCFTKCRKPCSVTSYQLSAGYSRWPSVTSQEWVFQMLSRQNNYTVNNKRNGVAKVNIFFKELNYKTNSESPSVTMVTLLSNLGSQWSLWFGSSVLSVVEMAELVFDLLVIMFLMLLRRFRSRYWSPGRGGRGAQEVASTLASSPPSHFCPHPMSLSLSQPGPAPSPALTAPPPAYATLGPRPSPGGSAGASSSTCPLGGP

C[C@@H]1NC(=O)CNC(=O)[C@H](CCC(=O)O)NC(=O)[C@@H]2CCCN2C(=O)[C@H]([C@@H](C)O)NC(=O)[C@H](CCC(=O)O)NC(=O)[C@H](CCCNC(=N)N)NC(=O)[C@H](CCC(N)=O)NC(=O)CNC(=O)[C@@H](N)CSSC[C@@H](C(=O)O)NC(=O)[C@H](Cc2ccc(O)cc2)NC(=O)[C@H](Cc2c[nH]c3ccccc23)NC(=O)[C@@H]2CCCN2C(=O)[C@H](CCCCN)NC(=O)[C@H](C)NC(=O)[C@H](CCC(=O)O)NC1=O [solnatide, L-cysteine, L-cysteinylglycyl-L-glutaminyl-L-arginyl-L-α-glutamyl-L-threonyl-L-prolyl-L-α-glutamylglycyl-L-alanyl-L-α-glutamyl-L-alanyl-L-lysyl-L-prolyl-L-tryptophyl-L-tyrosyl-, cyclic (1→17)-disulfide]
Membrane abundance, solnatide 5 min (αY447fs; 5 min): 1.57 ± 0.13 | Membrane abundance, solnatide 10 min (αY447fs; 10 min): 1.89 ± 0.16 | Maximal induced current, solnatide (α-hENaC): 11.3 ± 6.2 pA
